Assay results taken from patent US20050065595A1, “Implants containing combretastatin a-4” (priority 2001, published 2005).

Experiments:
endothelial cells = assay: Cell culture studies with endothelial cells after CA4 treatment; format: cell-based; conditions: following a treatment with CA4
[1] = system: smooth muscle cells (SMCs); assay: SMC proliferation inhibition (BrdU-ELISA or cell counting); format: cell-based; conditions: for IC50: 96 h, SMCs, 2000 cells per well, BrdU-ELISA (paclitaxel: counting the number of cells), 24, 48, 72, 96 h
Method: SMCs were plated out in a 96-well plate in a density of 2000 cells per well. After 24 h, different concentrations of the active substance were adjusted (10^−2 to 10^−10M). The proliferation was measured after 24, 48, 72, and 96 h following the addition of the active substance using a BrdU-ELISA or, in the case of paclitaxel, by counting the number of cells.

tumor cell lines = conditions: cell culture studies, many different tumor cell lines; read-out: IC50, growth of tumor cell lines; cited from earlier work
alkaline phosphatases = conditions: by alkaline phosphatases; cited from earlier work
tumors = conditions: various animal models; cited from earlier work
neointimal development [2] = conditions: swine; cited from earlier work
neointimal development [3] = conditions: animal experiments; cited from earlier work
restenosis = conditions: vascular wall injured by balloon angioplasty and stent placement; cited from earlier work

In the case of `COc1ccc(/C=C\c2cc(OC)c(OC)c(OC)c2)cc1O` [CA4, 2-methoxy-5-[(1Z)-2-(3,4,5-trimethoxyphenyl)ethenyl]phenol], the “recovery of endothelial cells versus SMCs after treatment” value (endothelial cells) is reported as “endothelial cells are able to recover more rapidly than the SMCs”, the IC50 [1] is reported as roughly 0.5 nM and the “effectiveness relative to paclitaxel (SMC proliferation)” value ([1]; CA4 vs paclitaxel) is reported as 10 to 50 times.
For `COc1ccc(/C=C\c2cc(OC)c(OC)c(OC)c2)cc1OP(=O)([O-])[O-].[Na+].[Na+]` [CA4P, disodium combretastatin-A4-3-O-phosphate], the IC50 (tumor cell lines) is given as 0.2 to 6 nM, the “transformation into CA4 in vivo” value (alkaline phosphatases) is given as “very rapidly transformed into CA4” and the “inhibition of tumor growth” value (tumors) is given as “markedly inhibit the growth of tumors”.
In the case of `CC(=O)O[C@H]1C(=O)[C@@]2(C)[C@H]([C@H](OC(=O)c3ccccc3)[C@]3(O)C[C@H](OC(=O)[C@H](O)[C@@H](NC(=O)c4ccccc4)c4ccccc4)C(C)=C1C3(C)C)[C@]1(OC(C)=O)CO[C@@H]1C[C@@H]2O` [paclitaxel], the “effect 6 months after implantation of coated stents” value (neointimal development [2]) is given as “the effect had been neutralized”, the “effect on neointimal development” value (neointimal development [3]) is given as “inhibit the neointimal development” and the IC50 [1] is given as roughly 10 nM.
For `CO[C@H]1C[C@@H]2CC[C@@H](C)[C@@](O)(O2)C(=O)C(=O)N2CCCC[C@H]2C(=O)O[C@H]([C@H](C)C[C@@H]2CC[C@@H](O)[C@H](OC)C2)CC(=O)[C@H](C)/C=C(\C)[C@@H](O)[C@@H](OC)C(=O)[C@H](C)C[C@H](C)/C=C/C=C/C=C/1C` [rapamycin], the “healing of the vascular wall” value (restenosis) is listed as “delayed healing of the vascular wall”.
